What was measured:
[1] = target: T1, rat liver microsomal 5α-reductase (Rattus norvegicus, UniProt P24008); test: 5α-reductase assay using rat liver microsomes (testosterone metabolism, HPLC and TLC); assay type: biochemical; conditions: for inhibition of 5α-reductase activity: at 10 and 100 μmol/L; for Inhibitory activity on 5α-reductase (% of control) / IC50: testosterone 3.5 μmol/L, 30 min, rat liver microsomes 40 μg/mL, HPLC; for Inhibitory activity on 5α-reductase (% of control): mean ± SEM, N = 3; for effect on 5α-reductase activity: examined at 0.1, 1, 10, and 100 μmol/L
T1 construct: The reaction was started with the addition of liver microsomes (20 μg protein); from tissue; host or cells: liver microsomes of male Sprague–Dawley rats
T1 sequence (P24008 1-259): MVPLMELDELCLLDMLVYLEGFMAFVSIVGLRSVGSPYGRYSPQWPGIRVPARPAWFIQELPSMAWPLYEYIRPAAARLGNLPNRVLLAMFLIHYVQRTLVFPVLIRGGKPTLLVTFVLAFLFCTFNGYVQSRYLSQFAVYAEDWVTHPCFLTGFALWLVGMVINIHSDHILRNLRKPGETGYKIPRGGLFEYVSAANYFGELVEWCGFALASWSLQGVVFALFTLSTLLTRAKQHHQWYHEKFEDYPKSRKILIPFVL
Procedure: Rat liver microsomes were prepared by the method of Lee et al.. Male Sprague–Dawley rats (body weight, 300 to 320 g; Clea Japan, Tokyo, Japan) were fasted overnight to decrease the concentration of liver glycogen and then sacrificed. The liver was excised and washed in ice-cold homogenizing buffer containing 0.32 mol/L sucrose, 1 mmol/L dithiothreitol (Wako Pure Chemical Industries), and 20 mmol/L potassium phosphate, pH 6.5. The following procedures were all carried out at 4°C. The tissue was minced with a pair of scissors and then homogenized in homogenizing buffer using a Potter-Elvehjem grinder. The homogenate was then centrifuged at 10 000 g for 10 min. The resulting pellet was washed with two pellet volumes of homogenizing buffer and centrifuged again. The supernatants from the two centrifugations were combined and further centrifuged at 105 000 g for 1 h. The resulting pellet (microsomes) was suspended in homogenizing buffer and centrifuged again. The microsomes were resuspended in homogenizing buffer. The microsome suspension was divided into small aliquots and stored at −80°C. The microsomes were diluted with 40 mmol/L potassium phosphate, pH 6.5, immediately before use. Unlike human liver, rat liver microsomes have the 5α-R1 but not the 5α-R2 isoform.
Briefly, the reaction solution was preincubated with or without a test sample in 1 mmol/L dithiothreitol, 40 mmol/L potassium phosphate, pH 6.5, 100 μmol/L NADPH (Oriental Yeast, Tokyo, Japan), and 3.5 μmol/L testosterone (Wako Pure Chemical Industries) in a final volume of 0.5 mL for 20 min at room temperature. The reaction was started with the addition of liver microsomes (20 μg protein). After incubation at 37°C for 30 min, the reaction solution was extracted with 2 mL ethyl acetate. The ethyl acetate phase (upper phase) was transferred to a tube and evaporated using a centrifugal concentrator (Tomy Seiko, Tokyo, Japan). Testosterone and the metabolites were measured by two chromatography methods, HPLC (Shimadzu, Kyoto, Japan) and TLC.
The residue was dissolved in acetonitrile and analyzed using the HPLC system. The reverse-phase HPLC analysis was performed on a C18 column (3.0 × 150 mm, GL Science, Japan) at a column oven temperature of 50°C and UV detection of 240 nm. The isocratic mobile phase of acetonitrile/water (50 : 50, v/v) was flowed at 0.4 mL/min through the column.
To detect the steroids by TLC, the residue containing steroids was taken up in ethanol and chromatographed on a TLC plate (Silica gel 60 F254, Merck, Darmstadt, Germany), using ethyl acetate-hexane (1 : 1, v/v) as the developing solvent system at room temperature. Testosterone, (Tokyo Chemical Industry Co., Tokyo, Japan) and 5α-androstane-3α,17β-diol (Sigma-Aldrich) were applied to TLC as androgen standards. The plate was exposed to 10% sulfuric acid using an atomizer and then heated on a hot plate. The fluorescent signals were visualized by irradiation of UV light at 302 nm using a ChemiDoc XRS Plus (BIO-RAD, Hercules, CA).

[2] = system: human intestinal epithelial Caco-2 cells; set-up: method as in PMID 16890919, PMID 16580640; conditions: transport inhibited by phlorizin (SGLT-1 inhibitor); ref [34], [35]; cited from earlier work
[3] = system: primary hamster sebocytes (Ha-SE); test: testosterone-induced sebum synthesis (lipogenesis) assay in hamster sebocytes; assay type: cell-based; conditions: 10 and 30 μmol/L; 10 μmol/L testosterone; 8 days
Procedure: (§1) Primary hamster sebocytes (Ha-SE) were purchased from Kurabo Industries (Osaka, Japan) and maintained in a culture medium containing […] epidermal growth factor (EGF), 2% (v/v) human serum (HS), 8% (v/v) heat-inactivated fetal bovine serum (FBS) (Kurabo Industries), and a cocktail of penicillin G and streptomycin (Sigma-Aldrich). All assays using Ha-SE cells were performed between the 5th and 6th passage. For the study dealing with sebum synthesis, a sebum detecting kit (Kurabo industries) was used. […] The amount of sebum synthesized was evaluated by measuring lipid production and cell growth according to the manufacturer's instructions. That is, the lipid in sebaceous cells was stained with Oil Red O, extracted in 100% isopropanol, and quantified by a spectrometer at 520 nm. The cell growth was measured using XTT reagent (Biological Industries, Beit Haemek, Israel). The lipogenesis was calculated following the formula as relative sebum synthesis per cell number: lipogenesis = A/B, where A = OD 520 nm of 200 μL extract solution of 300 μL 100% isopropanol for extract of Oil red O dye and B = OD 465/630 nm of 200 μL of 450 μL culture fluids containing XTT reagent following incubation for 30 min. […]

[4] = system: primary hamster sebocytes (Ha-SE); test: insulin-induced sebum synthesis (lipogenesis) assay in hamster sebocytes; assay type: cell-based; conditions: 10 and 30 μmol/L; 10 μg/mL insulin; 8 days
Procedure: as §1

[5] = system: primary hamster sebocytes (Ha-SE); test: cell cytotoxicity (XTT) in undifferentiated hamster sebocytes
Procedure: Four Figures and Two Tables
Hamster-derived sebaceous gland cells (Ha-SE) were precultured until confluent in the presence of 10 ng/mL epidermal growth factor (EGF), and further cultured with 10, 30 […]
vehicle in the presence of EGF. Twenty four hours later, cell cytotoxicity was measured […]
Fig. S2. Bioconversion of exogenous dihydrotestosterone to 5α-androstane-3,17-diol by rat liver microsomal enzymes […]
min in the presence or absence of rat liver microsomes (40 μg/mL) and the co-factors.
The metabolites were extracted with ethyl acetate after incubation, and analyzed by TLC. All androgen standards were applied at 0.1 μg/μL/spot. T.: testosterone, DHT: dihydrotestosterone, A.diol: 5α-androstane-3α,17β-diol

Row | Compound | inhibition of 5α-reductase activity [1] | Inhibitory activity on 5α-reductase (% of control) ([1]; test sample 0.1 μmol/L) | Inhibitory activity on 5α-reductase (% of control) ([1]; test sample 1 μmol/L) | Inhibitory activity on 5α-reductase (% of control) ([1]; test sample 10 μmol/L) | Inhibitory activity on 5α-reductase (% of control) ([1]; test sample 100 μmol/L) | IC50 [1] | effect on 5α-reductase activity [1] | further results
1 | O=C(O[C@@H]1O[C@@H]2COC(=O)c3cc(O)c(O)c(O)c3-c3c(cc(O)c(O)c3O)C(=O)O[C@H]2[C@H](OC(=O)c2cc(O)c(O)c(O)c2)[C@H]1OC(=O)c1cc(O)c(O)c(O)c1)c1cc(O)c(O)c(O)c1 [Eugeniin, eugeniin] | more than 50% | 4.2 ± 1.0 % of control | 13.9 ± 0.5 % of control | 62.5 ± 0.6 % of control | 114.6 ± 0.6 % of control | 10.9 µM |  | 
2 | O=C(OC[C@H]1OC(O)[C@@](O)(COC(=O)c2cc(O)c(O)c(O)c2)[C@@H]1O)c1cc(O)c(O)c(O)c1 (stereo partly drawn) [Hamamelitannin, 2′,5-di-O-galloyl hamamelose] |  |  |  |  |  |  | did not show any effect | 
3 | O=C(OC[C@H]1O[C@@H](OC(=O)c2cc(O)c(O)c(O)c2)[C@H](OC(=O)c2cc(O)c(O)c(O)c2)[C@@H](OC(=O)c2cc(O)c(O)c(O)c2)[C@@H]1OC(=O)c1cc(O)c(O)c(O)c1)c1cc(O)c(O)c(O)c1 [Pentagalloyl glucose, 1,2,3,4,6-penta-O-galloyl glucose] | more than 50% | 5.4 ± 1.3 % of control | 36.1 ± 6.5 % of control | 83.5 ± 1.3 % of control | 107.9 ± 2.2 % of control | 2.5 µM |  | transport across Caco-2 monolayer [2]: crosses a monolayer; testosterone-induced lipogenesis [3]: significantly downregulated; insulin-induced lipogenesis [4]: significantly downregulated; cell metabolic activities ([5]; 24 h with BK (10, 30 μg/mL) or pentagalloyl glucose (10, 30 μmol/L) in the presence of EGF): not changed compared with the vehicle control
4 | O=C(OC[C@H]1OC(OC(=O)c2cc(O)c(O)c(O)c2)[C@H](OC(=O)c2cc(O)c(O)c(O)c2)[C@@H](OC(=O)c2cc(O)c(O)c(O)c2)[C@@H]1O)c1cc(O)c(O)c(O)c1 (stereo partly drawn) [Tetragalloyl glucose, 1,2,3,6-tetra-O-galloyl glucose] | more than 50% | 3.3 ± 0.5 % of control | 18.7 ± 0.4 % of control | 63.2 ± 3.0 % of control | 102.8 ± 1.2 % of control | 8.1 µM |  | 
5 | COc1cc2ccc(=O)oc2c(O[C@@H]2O[C@H](CO)[C@@H](O)[C@H](O)[C@H]2O)c1O [fraxin] |  |  |  |  |  |  | did not show any effect | 
6 | O=C(O)c1cc(O)c(O)c(O)c1 [gallic acid, Gallic acid] |  |  |  |  |  |  | did not show any effect | 
7 | COC(=O)c1cc(O)c(O)c(O)c1 [methyl gallate] |  |  |  |  |  |  | did not show any effect | 
8 | stenophyllanin C | more than 50% | 5.6 ± 0.6 % of control | 4.6 ± 0.5 % of control | 63.1 ± 0.4 % of control | 102.3 ± 2.2 % of control | 7.2 µM |  | 
9 | triton X-100 [reference compound] |  |  |  |  |  |  |  | cytotoxicity ([5]; 0.2% triton X-100, 24 h in the presence of EGF): significant cytotoxicity
